Assay results taken from patent US10815276B2, “Cell penetrating peptides and methods of making and using thereof” (Entrada Therapeutics, Inc., priority 2014, dated 2020).
Like-named read-outs stand apart in the source and are kept apart here. Starred links: 1 amine or outer side, 2 acyl side, 3 side chain; linkers in the order of their positions; H or OH if unused. Positions of bridges follow the written chain, without caps; N, C: chain ends. Non-standard residues stand in square brackets, D forms with d. Residues, ends and D or L forms follow the SMILES beside them. Groups on a side chain read outwards from the residue. Trimesoyl = O=C(c1cc(C(=O)[*:2])cc(C(=O)[*:3])c1)[*:1]; d(pT) = C[C@H](OP(=O)(O)O)[C@@H](N)C(=O)O; Phe(4-F) = N[C@@H](Cc1ccc(F)cc1)C(=O)O; 2Nal = N[C@@H](Cc1ccc2ccccc2c1)C(=O)O; Pip = O=C(O)[C@@H]1CCCCN1; Dap = NC[C@H](N)C(=O)O; Sar = CNCC(=O)O

How the values were obtained:
Jurkat cells = assay: In cellulo fluorimetric caspase assay; format: cell-based; conditions: staurosporin-treated cells, 5 μM peptide, 10-h period
Description: 100 μL of Jurkat cell suspension (5×10^5 cells/mL) was seeded in 96-well plate one hour prior to the experiment. Ten μL of staurosporine stock solution (10 μM) was added into half of the wells to induce apoptosis, while 10 μL of media was added to the other wells. After 1 h incubation, caspase-3 fluorogenic substrates were added to the cells to a final concentration of 5 μM. The fluorescence of the released coumarin was measured on the Spectramax M5 plate reader with excitation and emission wavelengths at 360 and 440 nm at various times points (0-6 h). The fluorescence unit (FU) increases between induced and uninduced cells were plotted against the time to present caspase-3 activities measured using various fluorogenic substrates in living cell in real-time. Three independent sets of experiments, each performed in triplicate, were conducted.
Jurkat cells were pretreated with the kinase inhibitor staurosporin to induce caspase activities and thus apoptosis (Belmokhtar, C A et al. Biochem. J. 1996, 315, 21). These cells were then incubated with peptides 3-7 and the amount of Amc released was monitored at various time points (0-10 h). […] Peptide 4 produced the fastest fluorescence increase, reaching 459 fluorescence units (FU), followed by peptides 7 and 6. […] This slow rate of AMC release can be attributed to hydrolysis by other intracellular proteases and peptidases. Consistent with this interpretation, pretreatment of Jurkat cells with a pancaspase inhibitor Z-VAD(OMe)-FMK (Slee, E A et al. Biochem J. 1996, 315, 21) followed by incubation with peptide 4 released AMC at a rate that was similar to that of peptide 5 alone. One explanation of the above observations is that both peptides 4 and 5 can enter the cell interior efficiently, but only peptide 4 can be converted into the linear caspase substrate inside the cells.

HeLa cells [1] = assay: MTT proliferation assay with Pin1 inhibitors; format: cell-based, human; conditions: MTT
Description: HeLa cells (100 μL/each well, 5×10^4 cells/mL) were seeded in a 96-well culture plate and allowed to grow overnight in DMEM supplemented with 10% FBS. […] After that, 10 μL of a MTT stock solution (5 mg/mL) was added into each well. The plate was incubated at 37° C. for 4 h and 100 μL of SDS-HCl solubilizing solution was added into each well, followed by thorough mixing. The plate was incubated at 37° C. overnight and the absorbance of the formazan product was measured at 570 nm on a Molecular Devices Spectramax M5 plate reader. Each experiment was performed in triplicates and the cells untreated with peptide were used as control.

Pin1 [2] = target: T1, Pin1 (Homo sapiens, UniProt Q13526, S16A/Y23A); assay: Fluorescence anisotropy binding to Pin1; conditions: FITC-labeled peptide, FA analysis
T1 construct: The full-length human S16A/Y23A mutant Pin1 was expressed and purified from E. coli; made in house
Description: The gene coding for the catalytic domain of PTP1B (amino acids 1-321) was amplified by the polymerase chain reaction using PTP1B cDNA as template and oligonucleotides 5′-[…]-3′ and 5′-[…]-3′ as primers. […] Expression and purification of the ybbR-tagged PTP1B were carried out as previously described (Ren, L et al. Biochemistry 2011, 50, 2339-2356). […] The reaction mixture was passed through a G-25 fast-desalting column equilibrated in 30 mM HEPES, pH 7.4, 150 mM NaCl to remove any free dye molecules. The full-length human S16A/Y23A mutant Pin1 was expressed and purified from E. coli as previously described (Liu, T et al. J. Med. Chem. 2010, 53, 2494-2501).
FA experiments were carried out by incubating 100 nM FITC-labeled peptide with varying concentrations of protein in 20 mM HEPES (pH 7.4), 150 mM NaCl, 2 mM magnesium acetate, and 0.1% bovine serum albumin (BSA) for 2 h at room temperature. The FA values were measured on a Molecular Devices Spectramax M5 plate reader, with excitation and emission wavelengths at 485 and 525 nm, respectively. Equilibrium dissociation constants (KD) were determined by plotting the FA values as a function of protein concentration and fitting the curve to the following equation:
[formula] where Y is the FA value at a given protein concentration x, L is the peptide concentration, Qb/Qf is the correction factor for fluorophore-protein interaction, Amax is the maximum FA value when all of the peptides are bound to protein, while Amin is the minimum FA value when all of the peptides are free. FA competition assay was performed by incubating 100 nM FITC-labeled Pin1 inhibitor 5 with 1 μM Pin1, followed by the addition of 0-5 μM unlabeled inhibitor. The FA values were measured similarly on a pate reader. IC50 values were obtained by plotting the FA values against the competitor concentration and curve fitting using the four-parameter dose-response inhibition equation (Prism 6, GraphPad).

HeLa cells [3] = assay: Cellular uptake by flow cytometry; format: cell-based, human; conditions: 5 μM FITC-labeled peptide, 2 h
Description: The cellular uptake efficiency of peptide 37, peptide 1, and a previously reported membrane-impermeable monocyclic Pin1 inhibitor (Table 18, peptide 46) was assessed by incubating HeLa cells with the FITC-labeled peptides (5 μM) for 2 h and quantifying the total intracellular fluorescence by flow cytometry analysis. […] By contrast, cells treated with peptides 1 and 37 gave MFI values of 2562 and 8792, respectively. Thus, peptide 37 is internalized by HeLa cells ˜4-fold more efficiently than peptide 1. Presumably, the negative charged phosphate group of peptide 1 interacted electrostatically with the positively charged CPP motif and reduced the cellular uptake efficiency of the latter.

Pin1 [4] = target: T1, Pin1; assay: Pin1 binding by FA (FITC-labeled peptides)
HeLa cells [5] = conditions: MTT
Description: The effect of peptide 37 on the growth of HeLa cells was examined by using the MTT cell viability assay.

T1 sequence (Q13526 whole entry S16A/Y23A): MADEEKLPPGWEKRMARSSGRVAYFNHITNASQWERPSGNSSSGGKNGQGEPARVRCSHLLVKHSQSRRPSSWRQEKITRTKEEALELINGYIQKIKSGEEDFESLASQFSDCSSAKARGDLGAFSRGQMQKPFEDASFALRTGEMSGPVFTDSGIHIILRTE

| SMILES | Fluorescence increase (released Amc) (Jurkat cells) | Effect on cell growth (HeLa cells [1]) | also measured |
| --- | --- | --- | --- |
| C[C@@H]1NC(=O)[C@H](CCCNC(=N)N)NC(=O)[C@H](Cc2ccc3ccccc3c2)NC(=O)[C@@H]2CCCCN2C(=O)[C@@H](CC(=O)O)NC(=O)CN(C)C(=O)[C@@H]2CCCN2C(=O)c2cc3cc(c2)C(=O)NC[C@H](NC(=O)[C@@H](C)NC1=O)C(=O)N[C@@H](Cc1ccccc1)C(=O)N[C@@H](Cc1ccc2ccccc2c1)C(=O)N[C@@H](CCCNC(=N)N)C(=O)N[C@@H](CCCNC(=N)N)C(=O)N[C@@H](CCCNC(=N)N)C(=O)N[C@@H](CCCNC(=N)N)C(=O)N[C@H](C(=O)N[C@@H](CCCCN)C(N)=O)CNC3=O [Peptide 3, bicyclo[Tm-(Pro-Sar-D-Asp-Pip-Nal-Arg-Ala-D-Ala)-Dap-(Phe-Nal-Arg-Arg-Arg-Arg-Dap)]-Lys] (P[Sar][dD][Pip][2Nal]RA[dA][Dap]F[2Nal]RRRR[Dap]K-NH2; linker N-9-16 via Trimesoyl) | little fluorescence increase | – | – |
| C[C@@H]1NC(=O)[C@H](CCCNC(=N)N)NC(=O)[C@H](Cc2ccc3ccccc3c2)NC(=O)[C@@H]2CCCCN2C(=O)[C@@H]([C@H](C)O)NC(=O)[C@H](Cc2ccc(F)cc2)NC(=O)[C@@H](Cc2ccccc2)NC(=O)c2cc3cc(c2)C(=O)NC[C@H](NC(=O)[C@@H](C)NC1=O)C(=O)N[C@@H](Cc1ccccc1)C(=O)N[C@@H](Cc1ccc2ccccc2c1)C(=O)N[C@@H](CCCNC(=N)N)C(=O)N[C@@H](CCCNC(=N)N)C(=O)N[C@@H](CCCNC(=N)N)C(=O)N[C@@H](CCCNC(=N)N)C(=O)N[C@H](C(=O)N[C@@H](CCCCN)C(N)=O)CNC3=O [Peptide 4, bicyclo[Tm-(D-Phe-Fpa-D-Thr-Pip-Nal-Arg-Ala-D-Ala)-Dap-(Phe-Nal-Arg-Arg-Arg-Arg-Dap)]-Lys] ([dF][Phe(4-F)][dT][Pip][2Nal]RA[dA][Dap]F[2Nal]RRRR[Dap]K-NH2; linker N-9-16 via Trimesoyl; C-terminus assumed) | 459 FU | – | – |
| C[C@@H]1NC(=O)[C@H](CCCNC(=N)N)NC(=O)[C@H](Cc2ccc3ccccc3c2)NC(=O)[C@@H]2CCCCN2C(=O)[C@@H](CC(=O)O)NC(=O)CN(C)C(=O)[C@@H]2CCCN2C(=O)c2cc3cc(c2)C(=O)NC[C@@H](C(=O)N[C@@H](CCCCN)C(N)=O)NC(=O)[C@H](CCCNC(=N)N)NC(=O)[C@H](CCCNC(=N)N)NC(=O)[C@H](CCCNC(=N)N)NC(=O)[C@H](CCCNC(=N)N)NC(=O)[C@H](Cc2ccc4ccccc4c2)NC(=O)[C@H](Cc2ccccc2)NC(=O)[C@H](CNC3=O)NC1=O [Peptide 9, bicyclo[Tm-(Pro-Sar-D-Asp-Pip-Nal-Arg-Ala)-Dap-(Phe-Nal-Arg-Arg-Arg-Arg-Dap)]-Lys] (P[Sar][dD][Pip][2Nal]RA[Dap]F[2Nal]RRRR[Dap]K-NH2; linker N-8-15 via Trimesoyl; C-terminus assumed) | – | no effect | KD (Pin1 [2]): abolished Pin1 inhibitory activity |
| C[C@H](OP(=O)(O)O)[C@H]1NC(=O)CN(C)C(=O)[C@@H](C)NC(=O)[C@H](CCC(=O)N[C@@H](CCCCN)C(N)=O)NC(=O)[C@H](Cc2ccc(O)cc2)NC(=O)[C@H](Cc2ccc3ccccc3c2)NC(=O)[C@@H]2CCCCN2C1=O [Peptide 46, cyclo(D-Ala-Sar-D-pThr-Pip-Nal-Tyr-Gln)-Lys, reference compound] (cyclo([dA][Sar][d(pT)][Pip][2Nal]YE([Lys-NH2])); ring closure inferred) | – | no effect | Mean fluorescence intensity (MFI) (HeLa cells [3]): 193; Kd (Pin1 [4]): 240 ± 40 nM; Effect on cell growth (HeLa cells [5]): neither peptide 46 nor 47 had any effect |
